Consider 5 molecules from paper PMC11345841, “Exploring 2-Sulfonylpyrimidine Warheads as Acrylamide Surrogates for Targeted Covalent Inhibition: A BTK Story” (Journal of Medicinal Chemistry, 2024).

Read-outs that look alike come from different tables or passages of the source.

Assay in all cases: KINOMEscan ScanTK
Type in all cases: binding

The target of one assay is T1, EPHA8 (Homo sapiens, UniProt P29322).
T1 construct: purchased Eurofins DiscoverX KINOMEscan (scanTK)
T1 sequence (P29322 28-1005): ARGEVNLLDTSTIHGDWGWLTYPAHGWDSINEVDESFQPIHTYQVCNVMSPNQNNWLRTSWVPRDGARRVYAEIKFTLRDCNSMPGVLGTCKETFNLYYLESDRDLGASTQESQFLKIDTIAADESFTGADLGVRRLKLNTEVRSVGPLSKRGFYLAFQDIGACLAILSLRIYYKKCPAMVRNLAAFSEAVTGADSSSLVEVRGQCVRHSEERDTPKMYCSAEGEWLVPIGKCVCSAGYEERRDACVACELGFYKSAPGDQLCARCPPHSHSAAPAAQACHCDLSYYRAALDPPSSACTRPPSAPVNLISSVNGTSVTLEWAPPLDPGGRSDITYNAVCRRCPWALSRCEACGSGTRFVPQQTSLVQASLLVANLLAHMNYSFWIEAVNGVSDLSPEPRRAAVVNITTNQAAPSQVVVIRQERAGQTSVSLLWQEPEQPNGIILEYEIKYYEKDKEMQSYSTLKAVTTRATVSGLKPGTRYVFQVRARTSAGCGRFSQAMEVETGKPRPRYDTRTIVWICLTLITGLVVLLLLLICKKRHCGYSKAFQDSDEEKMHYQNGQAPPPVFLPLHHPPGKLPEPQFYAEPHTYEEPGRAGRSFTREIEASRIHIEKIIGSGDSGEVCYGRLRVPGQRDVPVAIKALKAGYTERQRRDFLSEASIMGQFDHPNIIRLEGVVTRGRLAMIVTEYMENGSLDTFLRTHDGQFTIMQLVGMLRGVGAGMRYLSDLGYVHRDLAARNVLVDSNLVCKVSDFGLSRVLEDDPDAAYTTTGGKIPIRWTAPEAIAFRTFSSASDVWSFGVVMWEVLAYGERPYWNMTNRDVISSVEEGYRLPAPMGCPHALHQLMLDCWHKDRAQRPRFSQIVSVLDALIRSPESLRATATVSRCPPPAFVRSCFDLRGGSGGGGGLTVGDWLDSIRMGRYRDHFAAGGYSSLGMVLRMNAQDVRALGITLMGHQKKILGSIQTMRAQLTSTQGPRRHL

For assay [1], the target named is T2, TYK2(JH1domain-catalytic) (Homo sapiens, UniProt P29597).
T2 construct: TYK2(JH1domain-catalytic); purchased Eurofins DiscoverX KINOMEscan (scanTK)
T2 sequence (P29597 888-1187 limits assumed): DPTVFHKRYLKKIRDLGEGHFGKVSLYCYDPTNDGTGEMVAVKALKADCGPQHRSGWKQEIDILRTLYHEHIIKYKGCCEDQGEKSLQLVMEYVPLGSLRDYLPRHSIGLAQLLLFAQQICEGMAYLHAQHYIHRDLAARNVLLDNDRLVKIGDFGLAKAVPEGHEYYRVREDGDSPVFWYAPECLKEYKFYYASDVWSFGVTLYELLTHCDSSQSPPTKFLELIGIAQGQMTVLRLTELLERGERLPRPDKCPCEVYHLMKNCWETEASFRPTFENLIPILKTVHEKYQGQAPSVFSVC

A further assay has as its target T3, FES (Homo sapiens, UniProt P07332).
T3 construct: purchased Eurofins DiscoverX KINOMEscan (scanTK)

The target in the next assay is T4, MUSK (Homo sapiens, UniProt O15146).
T4 construct: purchased Eurofins DiscoverX KINOMEscan (scanTK)
T4 sequence (O15146 24-869): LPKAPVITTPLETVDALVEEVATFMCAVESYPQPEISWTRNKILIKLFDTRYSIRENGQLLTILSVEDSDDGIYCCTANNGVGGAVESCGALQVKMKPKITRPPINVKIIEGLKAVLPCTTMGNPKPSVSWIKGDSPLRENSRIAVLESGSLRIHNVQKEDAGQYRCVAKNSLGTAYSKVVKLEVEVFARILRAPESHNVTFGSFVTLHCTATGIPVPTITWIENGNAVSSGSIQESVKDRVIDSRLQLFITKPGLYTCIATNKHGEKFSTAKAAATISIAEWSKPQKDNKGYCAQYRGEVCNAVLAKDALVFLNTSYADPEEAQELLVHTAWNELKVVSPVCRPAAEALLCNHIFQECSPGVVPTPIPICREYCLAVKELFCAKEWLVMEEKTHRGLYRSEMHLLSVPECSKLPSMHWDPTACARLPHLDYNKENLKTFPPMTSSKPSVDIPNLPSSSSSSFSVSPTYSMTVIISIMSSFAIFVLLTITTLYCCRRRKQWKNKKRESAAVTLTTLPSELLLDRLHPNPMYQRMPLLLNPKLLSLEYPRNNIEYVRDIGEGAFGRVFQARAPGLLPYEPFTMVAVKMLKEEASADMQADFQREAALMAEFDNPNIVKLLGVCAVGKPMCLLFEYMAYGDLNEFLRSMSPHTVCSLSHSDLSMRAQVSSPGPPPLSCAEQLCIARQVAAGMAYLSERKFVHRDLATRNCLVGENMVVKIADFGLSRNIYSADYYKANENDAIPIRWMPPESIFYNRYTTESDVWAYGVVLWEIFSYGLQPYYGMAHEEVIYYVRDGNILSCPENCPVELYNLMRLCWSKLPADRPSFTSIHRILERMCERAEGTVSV

For assay [2], the target named is T5, ABL1(Y253F)-phosphorylated (Homo sapiens, UniProt P00519, Y253F).
T5 construct: purchased Eurofins DiscoverX KINOMEscan (scanTK)

Another assay addresses T6, MET(Y1235D) (Homo sapiens, UniProt P08581, Y1235D).
T6 construct: purchased Eurofins DiscoverX KINOMEscan (scanTK)

A further assay concerns the target T7, CSK (Homo sapiens, UniProt P41240).
T7 construct: purchased Eurofins DiscoverX KINOMEscan (scanTK)

T7 sequence (P41240 whole entry): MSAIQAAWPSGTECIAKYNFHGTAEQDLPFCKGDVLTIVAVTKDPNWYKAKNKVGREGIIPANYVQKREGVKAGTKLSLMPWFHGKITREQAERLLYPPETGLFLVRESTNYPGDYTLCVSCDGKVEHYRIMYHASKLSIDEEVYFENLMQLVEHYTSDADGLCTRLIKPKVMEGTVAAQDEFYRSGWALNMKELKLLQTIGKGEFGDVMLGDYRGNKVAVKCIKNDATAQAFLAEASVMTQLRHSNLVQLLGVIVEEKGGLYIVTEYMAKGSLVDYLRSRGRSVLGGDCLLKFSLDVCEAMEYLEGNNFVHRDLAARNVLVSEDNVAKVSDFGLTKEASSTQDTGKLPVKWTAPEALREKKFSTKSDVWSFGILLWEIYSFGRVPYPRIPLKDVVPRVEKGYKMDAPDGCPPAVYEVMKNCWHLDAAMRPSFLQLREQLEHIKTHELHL
T3 sequence (P07332 whole entry): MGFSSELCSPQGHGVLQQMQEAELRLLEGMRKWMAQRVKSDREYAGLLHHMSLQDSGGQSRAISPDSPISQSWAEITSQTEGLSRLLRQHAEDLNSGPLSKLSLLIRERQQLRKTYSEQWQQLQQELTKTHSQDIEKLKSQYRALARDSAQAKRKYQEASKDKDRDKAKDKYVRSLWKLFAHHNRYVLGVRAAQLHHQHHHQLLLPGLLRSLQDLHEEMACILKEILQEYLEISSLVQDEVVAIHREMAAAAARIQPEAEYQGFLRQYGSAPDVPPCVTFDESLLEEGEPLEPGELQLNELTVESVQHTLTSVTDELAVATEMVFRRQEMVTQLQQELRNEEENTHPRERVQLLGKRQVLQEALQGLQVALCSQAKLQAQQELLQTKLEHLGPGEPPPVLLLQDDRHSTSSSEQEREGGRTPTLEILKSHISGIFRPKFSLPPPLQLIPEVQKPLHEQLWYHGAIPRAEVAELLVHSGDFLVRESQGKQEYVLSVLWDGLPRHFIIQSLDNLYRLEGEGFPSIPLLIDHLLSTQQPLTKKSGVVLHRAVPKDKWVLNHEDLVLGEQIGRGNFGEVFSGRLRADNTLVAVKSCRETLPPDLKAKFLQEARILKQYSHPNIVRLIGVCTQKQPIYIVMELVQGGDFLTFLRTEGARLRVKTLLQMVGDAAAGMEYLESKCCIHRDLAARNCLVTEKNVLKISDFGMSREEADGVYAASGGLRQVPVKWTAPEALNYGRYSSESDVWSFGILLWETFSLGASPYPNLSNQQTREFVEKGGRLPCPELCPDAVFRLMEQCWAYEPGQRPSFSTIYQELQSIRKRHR
T6 sequence (P08581 25-1390 Y1235D): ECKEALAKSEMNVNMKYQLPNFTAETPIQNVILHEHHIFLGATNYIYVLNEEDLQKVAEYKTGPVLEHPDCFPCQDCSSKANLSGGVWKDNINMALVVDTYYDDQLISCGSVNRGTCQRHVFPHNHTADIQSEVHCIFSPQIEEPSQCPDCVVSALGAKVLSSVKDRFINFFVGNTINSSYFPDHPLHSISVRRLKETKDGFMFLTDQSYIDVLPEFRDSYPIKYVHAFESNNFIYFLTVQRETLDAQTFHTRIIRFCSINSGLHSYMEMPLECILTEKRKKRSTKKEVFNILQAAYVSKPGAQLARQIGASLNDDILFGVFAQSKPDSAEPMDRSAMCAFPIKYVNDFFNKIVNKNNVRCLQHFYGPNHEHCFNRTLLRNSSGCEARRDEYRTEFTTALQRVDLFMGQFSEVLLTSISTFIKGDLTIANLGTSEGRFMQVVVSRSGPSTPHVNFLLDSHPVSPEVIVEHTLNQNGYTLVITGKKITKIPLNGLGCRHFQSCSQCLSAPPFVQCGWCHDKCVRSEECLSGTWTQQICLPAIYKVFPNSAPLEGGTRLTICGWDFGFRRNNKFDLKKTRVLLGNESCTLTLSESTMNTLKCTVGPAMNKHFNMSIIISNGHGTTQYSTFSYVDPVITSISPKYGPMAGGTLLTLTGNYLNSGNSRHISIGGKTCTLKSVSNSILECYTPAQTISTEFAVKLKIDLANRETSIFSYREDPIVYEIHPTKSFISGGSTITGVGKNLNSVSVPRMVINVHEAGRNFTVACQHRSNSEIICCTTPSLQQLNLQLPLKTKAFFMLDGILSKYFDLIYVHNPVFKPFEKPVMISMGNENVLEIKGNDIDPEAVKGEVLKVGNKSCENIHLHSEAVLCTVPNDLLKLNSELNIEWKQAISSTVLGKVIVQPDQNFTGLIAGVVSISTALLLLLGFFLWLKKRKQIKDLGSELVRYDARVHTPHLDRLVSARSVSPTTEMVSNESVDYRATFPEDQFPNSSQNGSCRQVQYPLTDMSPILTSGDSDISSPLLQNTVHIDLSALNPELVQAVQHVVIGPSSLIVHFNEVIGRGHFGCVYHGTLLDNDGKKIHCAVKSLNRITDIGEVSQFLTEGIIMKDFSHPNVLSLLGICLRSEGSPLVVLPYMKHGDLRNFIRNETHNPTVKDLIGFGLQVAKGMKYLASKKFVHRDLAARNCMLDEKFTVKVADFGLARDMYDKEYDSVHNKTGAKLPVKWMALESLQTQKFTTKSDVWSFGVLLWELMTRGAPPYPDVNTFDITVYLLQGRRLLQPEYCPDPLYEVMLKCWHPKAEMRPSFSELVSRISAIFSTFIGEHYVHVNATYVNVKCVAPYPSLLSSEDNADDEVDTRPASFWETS

In the case of `CCOC(=O)c1cnc(S(C)(=O)=O)nc1N1CCC[C@@H](n2nc(-c3ccc(Oc4ccccc4)cc3)c3c(N)ncnc32)C1` [Compound 8c, Ethyl (R)-4-(3-(4-Amino-3-(4-phenoxyphenyl)-1H-pyrazolo[3,4-d]pyrimidin-1-yl)piperidin-1-yl)-2-(methylsulfonyl)pyrimidine-5-carboxylate], the difference in %Control versus compound Ib at 1 µM at EPHA8 (@1000nM) was 19%; on FES (@1000nM), -4%. Besides, the remaining binding at 1 µM at EPHA8 (@1000nM, read-out: %Control) is 88%; at EPHA8 (read-out: %Control @1000nM), 88%; in assay [1] (@1000nM, read-out: %Control), 100%; in assay [1] (read-out: %Control @1000nM) it was 100%; at FES (@1000nM, read-out: %Control), 96%; at FES (read-out: %Control @1000nM) it was 96%. Also, the remaining binding at 1 µM on MUSK (@1000nM, read-out: %Control) came to 73%; at MUSK (read-out: %Control @1000nM), 73%; in assay [2] (@1000nM, read-out: %Control), 81%; in assay [2] (read-out: %Control @1000nM), 81%; on MET(Y1235D) (@1000nM, read-out: %Control), 100%; on MET(Y1235D) (read-out: %Control @1000nM), 100%. In addition, the remaining binding at 1 µM was determined as 30% at CSK (@1000nM, read-out: %Control) and 30% at CSK (read-out: %Control @1000nM). The molecule further gave a difference in %Control from compound Ib at 1 µM in assay [2] (@1000nM) of 4%. The molecule further came in with a difference in %Control from reference compound Ib at 1 µM at CSK (@1000nM) of 25.5%.

`Cc1cnc(S(C)(=O)=O)nc1N1CCCC(n2nc(-c3ccc(Oc4ccccc4)cc3)c3c(N)ncnc32)C1` (stereo not drawn) [Compound 8a, 1-(1-(5-Methyl-2-(methylsulfonyl)pyrimidin-4-yl)piperidin-3-yl)-3-(4-phenoxyphenyl)-1H-pyrazolo[3,4-d]pyrimidin-4-amine]: the difference in %Control versus compound Ib at 1 µM on EPHA8 (@1000nM) stood at 13%; at FES (@1000nM) it was 0%. Also, the remaining binding at 1 µM on EPHA8 (@1000nM, read-out: %Control) worked out at 82%; at EPHA8 (read-out: %Control @1000nM), 82%; in assay [1] (@1000nM, read-out: %Control), 89%; in assay [1] (read-out: %Control @1000nM), 89%; on FES (@1000nM, read-out: %Control), 100%; on FES (read-out: %Control @1000nM) it was 100%. Further, the remaining binding at 1 µM came to 88% at MUSK (@1000nM, read-out: %Control); 88% at MUSK (read-out: %Control @1000nM); 83% in assay [2] (@1000nM, read-out: %Control); 83% in assay [2] (read-out: %Control @1000nM); 100% on MET(Y1235D) (@1000nM, read-out: %Control); 100% at MET(Y1235D) (read-out: %Control @1000nM). Besides, the remaining binding at 1 µM at CSK (@1000nM, read-out: %Control) came to 6.6%; on CSK (read-out: %Control @1000nM), 6.6%. For the same molecule, the difference in %Control from compound Ib at 1 µM in assay [2] (@1000nM) is 6%. At CSK (@1000nM), this molecule yielded a difference in %Control from reference compound Ib at 1 µM of 2.1%.

For the molecule `C=CC(=O)N1CCC[C@@H](n2nc(-c3ccc(Oc4ccccc4)cc3)c3c(N)ncnc32)C1` [Compound 1g, Ibrutinib, reference compound], the remaining binding at 1 µM on EPHA8 (@1000nM, read-out: %Control) was 69%; at EPHA8 (read-out: %Control @1000nM) it was 69%; at FES (@1000nM, read-out: %Control), 100%; on FES (read-out: %Control @1000nM), 100%; on MUSK (@1000nM, read-out: %Control) it was 95%; on MUSK (read-out: %Control @1000nM) it was 95%. Further, the remaining binding at 1 µM is 77% in assay [2] (@1000nM, read-out: %Control); 77% in assay [2] (read-out: %Control @1000nM); 96% on MET(Y1235D) (@1000nM, read-out: %Control); 96% on MET(Y1235D) (read-out: %Control @1000nM); 4.5% at CSK (@1000nM, read-out: %Control); 4.5% on CSK (read-out: %Control @1000nM).

As to `COC(=O)c1cnc(S(C)(=O)=O)nc1N1CCCC(n2nc(-c3ccc(Oc4ccccc4)cc3)c3c(N)ncnc32)C1` (stereo not drawn) [Compound 8b, Methyl 4-(3-(4-Amino-3-(4-phenoxyphenyl)-1H-pyrazolo[3,4-d]pyrimidin-1-yl)piperidin-1-yl)-2-(methylsulfonyl)pyrimidine-5-carboxylate], the results for the difference in %Control versus compound Ib at 1 µM at EPHA8 (@1000nM) and on FES (@1000nM) were 8% and 0%, respectively. Moreover, the remaining binding at 1 µM was determined as 77% at EPHA8 (@1000nM, read-out: %Control); 77% at EPHA8 (read-out: %Control @1000nM); 95% in assay [1] (@1000nM, read-out: %Control); 95% in assay [1] (read-out: %Control @1000nM); 100% on FES (@1000nM, read-out: %Control); 100% at FES (read-out: %Control @1000nM). In addition, the remaining binding at 1 µM at MUSK (@1000nM, read-out: %Control) stood at 92%; at MUSK (read-out: %Control @1000nM), 92%; in assay [2] (@1000nM, read-out: %Control) it was 78%; in assay [2] (read-out: %Control @1000nM), 78%; on MET(Y1235D) (@1000nM, read-out: %Control) it was 94%; at MET(Y1235D) (read-out: %Control @1000nM), 94%. In addition, the remaining binding at 1 µM at CSK (@1000nM, read-out: %Control) worked out at 26%; at CSK (read-out: %Control @1000nM), 26%. The difference in %Control from compound Ib at 1 µM in assay [2] (@1000nM) was found to be 1%. At CSK (@1000nM), this molecule registered a difference in %Control from reference compound Ib at 1 µM of 21.5%.

On to `CNC(=O)c1cnc(S(C)(=O)=O)nc1N1CCCC(n2nc(-c3ccc(Oc4ccccc4)cc3)c3c(N)ncnc32)C1` (stereo not drawn) [Compound 8d, 4-(3-(4-Amino-3-(4-phenoxyphenyl)-1H-pyrazolo[3,4-d]pyrimidin-1-yl)piperidin-1-yl)-N-methyl-2-(methylsulfonyl)pyrimidine-5-carboxamide], for which the difference in %Control versus compound Ib at 1 µM stood at 24% on EPHA8 (@1000nM) and 0% on FES (@1000nM). Besides, the remaining binding at 1 µM on EPHA8 (@1000nM, read-out: %Control) was 93%; on EPHA8 (read-out: %Control @1000nM) it was 93%; in assay [1] (@1000nM, read-out: %Control) it was 100%; in assay [1] (read-out: %Control @1000nM), 100%; on FES (@1000nM, read-out: %Control), 100%; at FES (read-out: %Control @1000nM), 100%. The remaining binding at 1 µM worked out at 98% at MUSK (@1000nM, read-out: %Control); 98% at MUSK (read-out: %Control @1000nM); 80% in assay [2] (@1000nM, read-out: %Control); 80% in assay [2] (read-out: %Control @1000nM); 91% at MET(Y1235D) (@1000nM, read-out: %Control); 91% at MET(Y1235D) (read-out: %Control @1000nM). The remaining binding at 1 µM was 8.1% on CSK (@1000nM, read-out: %Control) and 8.1% at CSK (read-out: %Control @1000nM). The same molecule gave a difference in %Control from compound Ib at 1 µM in assay [2] (@1000nM) of 3%. This molecule also registered a difference in %Control from reference compound Ib at 1 µM at CSK (@1000nM) of 3.6%.
